Data from patent US20230097801A1, “METHODS OF INCREASING CELL PHAGOCYTOSIS” (National Health Research Institutes, priority 2021, published 2023).
Entries after “also recorded” stand apart in the source; their conditions may differ.

What was measured:
Mouse pk profiles = assay type: in vivo
CD47 [1] = test: Flow cytometry, anti-human CD47 CC2C6 antibody binding on DLD-1 cell surface; assay type: cell-based
Experimental: Binding between CD47 and SIRPα was studied by measuring the level of CD47 binding using any suitable method. Flow cytometric analysis is useful to quantify the level of binding of CD47 to antibody CC2C6, which is then subjected to an immune-staining procedure using fluorochrome-conjugated secondary antibody followed by analysis of the immune-staining signal with a flow cytometry instrument to obtain the level of the CD47-CC2C6 binding. In another method, analysis of CD47 is performed using SIRPα-Fc formed from SIRPα fused with human IgG1, which is then subjected to an immune-staining procedure using fluorochrome-conjugated secondary antibody against human IgG1, followed by analysis of the immune-staining signal. SIRPα is expressed on the surface of a myeloid cell such as macrophage, monocyte, neutrophil, or dendritic cell. Alternatively, SIRPα is fused with human IgG1 to form a SIRPα-Fc recombinant protein. […] An anti-cancer agent (e.g., rituximab) can be used together with a compound of formula (I). Useful anti-cancer agents are described above including anti-PD-L1 antibodies, anti-CD20 antibodies, anti-HER2 antibodies, anti-EGFR antibodies, and anti-CD47 antibodies. Other suitable anti-cancer agents are chemotherapeutic agents such as doxorubicin, epirubicin, idarubicin, methotrexate, mitoxantrone, oxaliplatin, and cyclophosphamide.
Human colon cancer DLD-1 cells were obtained from NHRI IBPR HTS Lab, Taiwan. DLD-1 cells were maintained under the same conditions described immediately above.
(§1) Antibody conjugates and extracellular domain of SIRPα used to analyze cell surface CD47 binding include anti-human CD47 CC2C6, 2D3, recombinant human SIRPα/CD172a Fc chimer protein, and anti-human IgG Fc. To determine inhibition of CD47 binding, cancer cells were treated with compounds of formula (I) at various concentrations for 4 days. Thereafter, the cells were washed with PBS containing 0.5% BSA (FACS buffer) followed by incubation with fluorochrome-labeled antibodies to human CD47 (i.e., CC2C6 and 2D3) at 1:50 dilution in FACS buffer for 30 minutes at 4° C. Compounds of formula (I) produced a dose-dependent inhibition of anti-CD47 CC2C6 antibody that recognized CD47 and SIRPα binding site on the tumor cell surface including B-cell lymphoma Raji cells, colon cancer cells DLD-1, and ovarian cancer SK-OV-3 cells (see FIGS. 1A, 1B, and 1C, respectively).

CD47 [2] = test: Flow cytometry, anti-human CD47 2D3 control antibody binding on Raji cell surface; assay type: cell-based; settings: Raji cells
Experimental: as §1

[3] = system: human B-cell lymphoma Raji xenograft tumor; test: Raji xenograft anti-tumor efficacy and survival study (3 weeks treatment); assay type: in vivo, NOD/SCID mice; settings: Compound 34 100 mg/kg p.o. QD*5, rituximab 10 mg/kg i.p. 2QW
Description: Human B-cell lymphoma Raji cells were used to evaluate the efficacy of Compound 34 and rituximab in treating cancer cells. Prior to injection into animals, the cancer cells were detected as free of Mycoplasma spp. NOD/SCID mice (BioLasco, Taiwan) were used for in vivo experiments due to their higher affinity of SIRPα to human CD47. The mice used in these studies were housed in Institutional Animal Care and Use Committees-approved facility at National Health Research Institutes in accordance with guidelines for the care and use of laboratory animals.
One million Raji cells in culture medium and matrigel (1:1, v/v) were injected subcutaneously into the left flank region of the mice (n=7 to 10 animals per group). Treatments were initiated after randomization with inclusion of tumors at approximately 100 mm^3. A dosing vehicle for Compound 34 was prepared using 10% DMA: 40% PEG400: 50% (1% CMC) (v/v/v) and was dosed orally (p.o.) at 100 mg/kg once a day, 5 days a week (Q.D.*5). Rituximab (Roche-Genentech, South San Francisco, Calif.) stock solution was diluted with PBS and dosed at 10 mg/kg twice a week (2QW) by intraperitoneal (i.p.) injection.
To evaluate anti-tumor efficacy and survival rates, mice were treated with vehicle control, 10 mg/kg rituximab (2QW, i.p.), 100 mg/kg Compound 34 (QD*5), or rituximab in combination with Compound 34. Treatment was discontinued at the end of 3 weeks. The mice were monitored for cancer growth and body weight once a week. Cancer growth was measured by volume with an electronic caliper. The volume was calculated as L×W^2/2, in which L is the length of the tumor and W is its width. Tumor size and animal body weight were measured once a week after cancer cell inoculation. Cancer response at the end of the study was calculated as tumor growth inhibition (TGI) using (1−T/C)*100, in which T is the mean tumor volume (mm^3) of the test group, and C is the mean tumor volume (mm^3) of the vehicle-treated group. […] For the survival study, treatment was discontinued at the end of 3 weeks. Thereafter, mice were followed up for tumor growth and body weight once a week. The mice were then sacrificed when tumor volume reached 2,000 mm^3 or body weight loss was greater than 10%. Kaplan-Meier plots were used as the study end point to calculate percentage of animals remaining in the study in term of the time. The median survival days for vehicle control and Compound 34 were 15.5 days and 18 days, respectively (FIG. 5E). Rituximab prolonged median survival days to 28 days after treatment discontinued (FIGS. 5C and 5E). Importantly, the combination of rituximab and Compound 34 further prolonged median survival days to 47 days (FIGS. 5D and 5E).

CD47 [4] = test: Pharmacodynamic study, CC2C6 binding and total CD47 on Raji xenograft tumor cells; assay type: in vivo, human; settings: 100 mg/kg p.o. QD*5, 10 days
Experimental: A pharmacodynamic study was also conducted to evaluate target engagement of Compound 34. In this study, one million Raji cells in culture medium and matrigel (1:1, v/v) were injected subcutaneously into the left flank region of each mouse. Treatments were initiated after randomization with inclusion of tumors at approximately 150 mm^3. A dosing vehicle for Compound 34 was prepared using 10% DMA: 40% PEG400: 50% (1% CMC) (v/v/v) and was dosed orally (p.o.) at 100 mg/kg once a day and 5 days a week (Q.D.*5). The mice were treated with either the vehicle control or Compound 34 for 10 days. They were then sacrificed 24 hours after the last dose (n=4 per group). Tumors were harvested and isolated into single cell suspensions for flow cytometry analysis. Unexpectedly, Compound 34 reduced 56% of anti-CD47 CC2C6 antibody binding on the tumor cell surface, as indicated by a decreasing level of anti-CC2C6^+ tumor cells in the Compound 34-treated mice as compared to the vehicle-treated mice.

With `O=C1NC[C@H](c2ccc(-c3csc(C(F)(F)F)c3)c(F)c2F)N1c1ccc2[nH]cnc2c1` [Compound 34] the “AUC Plasma” value (Mouse pk profiles; IV (2 mg/kg)) was 8869 ng·h/g, the “AUC Plasma” value (Mouse pk profiles; PO (30 mg/kg)) was 56451 ng·h/g and the clearance (Mouse pk profiles; plasma, IV (2 mg/kg)) was 4.6 mL/min/kg. The Cmax (Mouse pk profiles; plasma, PO (30 mg/kg)) was 1980 ng/mL, the bioavailability (Mouse pk profiles; plasma, PO (30 mg/kg) vs IV (2 mg/kg)) was 43% and the half-life (Mouse pk profiles; plasma, PO (30 mg/kg), read-out: T1/2 (h) Plasma (converted)) was 9.3 h. For the same compound, the IC50 (CD47 [1]; Colon Cancer (DLD-1 cells), 4 days treatment, read-out: IC50, inhibition of CC2C6 binding) was 580 nM, the “inhibition of binding of anti-human CD47 antibody CC2C6 (in words)” value (CD47 [1]; DLD-1 cells) was “effectively inhibited” and the “inhibition of binding of anti-human CD47 antibody 2D3 (in words)” value (CD47 [2]) was “not by anti-CD47 control antibody 2D3; also recorded: did not inhibit”. The “tumor growth inhibition (TGI, % of control)” value ([3]; 3 weeks) was 41.4%, the median survival days ([3]; treatment discontinued at 3 weeks) was 18 days and the “total CD47 expression level on the tumor cell surface” value (CD47 [4]) was “did not affect a total CD47 expression level; also recorded: without affecting a total CD47 expression level”.
